According to patent publication US9809562B2, “NAT10 modulators for treating or preventing laminopathies, aging and cancer” (CAMBRIDGE ENTERPRISE LIMITED, priority 2014, dated 2017):
Where a name gives a salt, the structure may show the parent alone.

How the values were obtained:
siLMNA cells = experiment: Cell cycle profile by flow cytometry; format: cell-based, human
Description: 10 μM EdU was incubated for 2 hours when indicated. Cells were fixed in 4% paraformaldehyde (Sigma-Aldrich). EdU was fluorescently labeled using the Click-iT® EdU Flow Cytometry Assay Kit (Life Sciences). DNA was stained with […] propidium iodide (Sigma-Aldrich) in phosphate buffer solution (PBS) containing 0.1% Triton-X-100 and 0.5 mg ml^−1 DNase free RNase A (Sigma-Aldrich). Samples were processed on a FACSCalibur flow cytometer equipped with CellQuest software (Becton Dickinson). Results were analysed using FlowJo software (TreeStar).

[1] = tested on: Lamin A/C depleted (siLMNA) U2OS cells; experiment: Nuclear shape rescue (DAPI staining, nuclear circularity) in Lamin A/C depleted cells; format: cell-based, human; conditions: for nuclear shape / nuclear circularity rescue: 16 hours, Compound 2 and 3 50 μM, MB-3 5 μM, FTI 5 μM, nocodazole 200 ng/ml, colchicine 1 μg/ml, latrunculin A 1 μM; for increase in potency compared to Compound 2 (dose-dependent nuclear shape rescue): DAPI staining
Description: U2OS and SaOS-2 osteosarcoma cells, HeLa cervical cancer cells, A431 melanoma cells, NCI-SNU5 gastric cancer cells, MRC-5 lung fibroblast cells and Werner syndrome patient-derived SV40 fibroblast cells were grown in Dulbecco's modified Eagle medium (DMEM, Sigma-Aldrich) supplemented with 10% fetal bovine serum (BioSera), 2 mM L-glutamine, 100 U per ml penicillin, 100 μg ml^−1 streptomycin. Normal skin primary fibroblasts GM03440 and Hutchinson Gilford Progeria Syndrome (HGPS) skin primary fibroblasts AG11498 and AG06297 were purchased from Coriell Cell Repositories and used between passage number 9-12 and 20-23 respectively. Cells were grown in DMEM supplemented as above. RPE-1 retinal pigment epithelial cells were grown in DMEM and Ham F12 mix medium supplemented as above and buffered with sodium bicarbonate. HMV-II melanoma cell line, 22RV1 prostate carcinoma cells, NCI-H82 and NCI-H69 lung carcinoma cells, and NCI-N87 gastric cancer cell lines were grown in RPMI-1640 medium (Sigma-Aldrich) supplemented as above. Stably transfected U2OS cells were maintained in standard medium containing 1 mg ml^−1 G418 (Invitrogen). The siRNA duplexes were obtained from Life Sciences: Lamin A/C stealth RNAi: […] (SEQ ID NO: 1) and […] (SEQ ID NO: 2), NAT10 stealth RNAi: […] (SEQ ID NO: 3), and as control siRNA, stealth RNAi negative control duplexes were used. Plasmid DNA and siRNA transfections were carried out using Lipofectamine 2000 and Lipofectamine RNAiMax (Life Sciences) respectively, following the manufacturer's instructions. Cells were analysed 48 to 72 hours after transfection.
The following KAT and KDAC inhibitors were used in the nuclear shape rescue screen, incubating cells with the molecules for 16 hours: trichostatin A (1 μM), sodium butyrate (5 mM), tubacin (10 μM), SAHA (5 μM), curcumin (10 μM), garcinol (50 μM), anacardic acid (1 μM), MB-3 (5 μM), 4-(4-chlorophenyl)-2-(2-cyclopentylidenehydrazinyl)thiazole (Compound 2) (50 μM), 4-(4-chlorophenyl)-2-(2-cyclopentylidene-1-(prop-2-yn-1-yl)hydrazinyl)thiazole (Compound 3) (50 μM) and cyclopentylidene-[4-(4-cyanophenyl)thiazol-2-yl)hydrazine (Compound 1) (Remodelin) (10 to 50 μM). For HGPS cellular fitness assays, Remodelin was incubated at 1 μM for 1 to 10 days, renewing the medium every 3 days. For long-term senescence assay, cells were kept and passaged in medium containing 1 μM Remodelin or DMSO only for 12 population doublings. Senescence was assessed after 8 days of Remodelin treatment when cells were at Population Doubling 12, and then after several weeks of Remodelin treatment, when cells reached Population Doubling 24 using the Senescence β-Galactosidase Staining Kit #9860 from Cell Signaling. Nocodazole, colchicine and latrunculin A (Sigma-Aldrich) were used at 200 ng/ml, 1 μg/ml and 1 μM respectively. Aphidicolin (Sigma-Aldrich) was used at 5 μg/ml for 16 h. Farnesyltransferase inhibitor FTI-277 was purchased from Tocris Bioscience and used at 5 μM. ATMi (KU55933) and ATRi (ATR-45) were obtained from Tocris Bioscience and from the Ohio State University respectively and used at 10 μM and 500 nM. Pifithrin alpha (Sigma-Aldrich) was used at 10 μM.
CellProfiler software was used to quantify nuclear circularity and nuclear area from DAPI staining pictures, using the “object size shape” measurement. The AreaShape measurement allowed the calculation of the Form Factor index ([…]) corresponding to circularity (a Form Factor of 1 reflecting a perfect circle), as well as the calculation of nuclear Area.
Lamin A/C was depleted by siRNA in U2OS cells (siLMNA) to induce misshapen nuclei. Cells were then treated for 16 h with various analogues of Compound 2 and nuclear shape rescue was analysed by DAPI staining. The results are shown in FIG. 18 and FIG. 19 which display the structures of the tested molecules and their ability to rescue nuclear shape.

[2] = Stability on exposure to light or air; format: physicochemical
[3] = tested on: cancer cell lines with low or high Lamin A/C expression; experiment: Population doubling time of cancer cell lines; format: cell-based, human
Description: FIG. 15: Compound 2 inhibits the proliferation, migration and invasion of cancer cells with low Lamin A/C expression. […] C) Quantification of transwell migration assays and matrigel invasion assays from the indicated low expressing cancer cell lines after treatment with 50 μM of compound 2.

[4] = A431 proliferation assay (IncuCyte ZOOM); format: cell-based, human
Description: A431 cells expressing a low level of Lamin A protein (see FIG. 2) were plated at low density and treated with the indicated concentration of Compound 2. Cell growth was monitored automatically over time using an IncuCyte ZOOM®.

| Compound | effect on cell cycle profile (siLMNA cells; siLMNA cells) | nuclear shape / nuclear circularity rescue [1] | stability [2] | population doubling time, sensitivity by Lamin A level ([3]; 50 μM for 1 week) | A431 cell growth ([4]; indicated concentrations, growth monitored over time) | accumulation of cells in mitosis (siLMNA cells) | increase in potency compared to Compound 2 (dose-dependent nuclear shape rescue) [1] | increase in potency compared to Compound 2 (dose-dependent nuclear shape rescue) ([1]; listed as Remodelin) | proliferation of cells expressing high levels of lamin A/C ([3]; up to 50 μM) | reduction of A431 proliferation ([4]; 10 μM) |
| --- | --- | --- | --- | --- | --- | --- | --- | --- | --- | --- |
| Clc1ccc(-c2csc(NN=C3CCCC3)n2)cc1 [Compound 2, 4-(4-Chlorophenyl)-2-(2-cyclopentylidenehydrazinyl)thiazole Hydrochloride Salt] | without markedly affecting the cell cycle profile | completely restoring nuclear shape and circularity | rapidly degraded upon exposure to light or air | cells expressing low levels of Lamin A are more sensitive to the molecule | inhibited in a dose-dependent manner | – | – | – | – | – |
| C#CCN(N=C1CCCC1)c1nc(-c2ccc(Cl)cc2)cs1 [Compound 3, 4-(4-Chlorophenyl)-2-(2-cyclopentylidene-1-(prop-2-yn-1-yl)hydrazinyl)thiazole] | – | equivalent cellular activity as Compound 2 | – | – | – | – | – | – | – | – |
| N#Cc1ccc(-c2csc(NN=C3CCCC3)n2)cc1 [Compound 1, 4-(4-Cyanophenyl)-2-(2-cyclopentylidenehydrazinyl)thiazole] | – | – | most potent and stable analogue of the series | – | – | cells did not accumulate in mitosis | five-fold | ~5 fold | not affected by up to 50 μM Remodelin | about 50% |
